According to paper PMC5218480 (PLoS ONE, 2017):

Test system: MV-4-11 cells
Assay: Gene expression microarray analysis (Affymetrix PrimeView) and GSEA
Type: cell-based, human
Design: RFU PODN (11730768_x_at) / Fold change /veh PODN (11730768_x_at) / RFU LINC00158 (11744669_a_at) / Fold change /veh LINC00158 (11744669_a_at) / RFU DUSP10 (11751237_a_at) / Fold change /veh DUSP10 (11751237_a_at) / RFU ID3 (11757404_x_at) / Fold change /veh ID3 (11757404_x_at) / RFU PLEKHG5 (11737974_s_at) / Fold change /veh PLEKHG5 (11737974_s_at) / RFU LRRC4B (11730491_at) / Fold change /veh LRRC4B (11730491_at) / RFU GIMAP4 (11747438_a_at) / Fold change /veh GIMAP4 (11747438_a_at) / RFU KRT8 (11758183_x_at) / Fold change /veh KRT8 (11758183_x_at) / RFU CNN1 (11734310_a_at) / Fold change /veh CNN1 (11734310_a_at) / RFU VPS37D (11726825_at) / Fold change /veh VPS37D (11726825_at) / RFU C10orf10 (11716522_x_at) / Fold change /veh C10orf10 (11716522_x_at) / RFU KIR2DL2 /// KIR2DL4 /// KIR2DL5A /// KIR2DL5B /// KIR2DS1 /// KIR2DS2 /// KIR2DS3 /// KIR2DS4 /// KIR3DL3 /// KIR3DL3 /// KIR3DS1 (11738374_at) / Fold change /veh KIR2DL2 /// KIR2DL4 /// KIR2DL5A /// KIR2DL5B /// KIR2DS1 /// KIR2DS2 /// KIR2DS3 /// KIR2DS4 /// KIR3DL3 /// KIR3DL3 /// KIR3DS1 (11738374_at) / RFU C1QL1 (11718748_at) / Fold change /veh C1QL1 (11718748_at) / RFU TMPRSS4 (11747572_a_at) / Fold change /veh TMPRSS4 (11747572_a_at) / RFU HAMP (11756126_x_at) / Fold change /veh HAMP (11756126_x_at) / RFU RNFT2 (11725882_a_at) / Fold change /veh RNFT2 (11725882_a_at) / RFU NR4A2 (11747474_a_at) / Fold change /veh NR4A2 (11747474_a_at) / RFU ABCC12 (11746883_a_at) / Fold change /veh ABCC12 (11746883_a_at) / RFU TMEM136 (11760407_x_at) / Fold change /veh TMEM136 (11760407_x_at) / RFU CLDN22 /// WWC2 (11732394_at) / Fold change /veh CLDN22 /// WWC2 (11732394_at) / RFU HLA-DPB1 (11760878_x_at) / Fold change /veh HLA-DPB1 (11760878_x_at) / RFU SPINT1 (11716480_a_at) / Fold change /veh SPINT1 (11716480_a_at) / RFU GAP43 (11754022_s_at) / Fold change /veh GAP43 (11754022_s_at) / RFU A4GNT (11735810_at) / Fold change /veh A4GNT (11735810_at) / RFU PRB3 (11715151_x_at) / Fold change /veh PRB3 (11715151_x_at) / RFU TUBB4B (11761932_at) / Fold change /veh TUBB4B (11761932_at) / RFU CAPN14 (11732068_a_at) / Fold change /veh CAPN14 (11732068_a_at) / RFU TMCC2 (11721928_a_at) / Fold change /veh TMCC2 (11721928_a_at) / RFU IRGQ (11745062_a_at) / Fold change /veh IRGQ (11745062_a_at) / RFU FAM174B (11720279_a_at) / Fold change /veh FAM174B (11720279_a_at) / RFU TMPRSS4 (11748680_a_at) / Fold change /veh TMPRSS4 (11748680_a_at) / RFU FAM212B (11763350_a_at) / Fold change /veh FAM212B (11763350_a_at) / RFU PLEKHG5 (11743358_a_at) / Fold change /veh PLEKHG5 (11743358_a_at) / RFU ZSCAN30 (11745921_a_at) / Fold change /veh ZSCAN30 (11745921_a_at) / RFU CMKLR1 (11741424_a_at) / Fold change /veh CMKLR1 (11741424_a_at) / RFU LOC101060620 /// MAPK8IP1 (11723275_at) / Fold change /veh LOC101060620 /// MAPK8IP1 (11723275_at) / RFU SPTSSB (11747773_x_at) / Fold change /veh SPTSSB (11747773_x_at) / RFU PRSS12 (11739890_at) / Fold change /veh PRSS12 (11739890_at) / RFU BIN1 (11741810_x_at) / Fold change /veh BIN1 (11741810_x_at) / RFU WNT11 (11732464_a_at) / Fold change /veh WNT11 (11732464_a_at) / RFU C10orf10 (11716521_a_at) / Fold change /veh C10orf10 (11716521_a_at) / RFU C5orf56 (11738089_at) / Fold change /veh C5orf56 (11738089_at) / RFU CYB561 (11721691_x_at) / Fold change /veh CYB561 (11721691_x_at) / RFU ANKRD19P (11752326_a_at) / Fold change /veh ANKRD19P (11752326_a_at) / RFU OR2T12 /// OR2T33 /// OR2T8 (11738714_s_at) / Fold change /veh OR2T12 /// OR2T33 /// OR2T8 (11738714_s_at) / RFU VCAN (11748164_a_at) / Fold change /veh VCAN (11748164_a_at) / RFU JSRP1 (11732532_at) / Fold change /veh JSRP1 (11732532_at) / RFU KRTAP10-11 (11738290_x_at) / Fold change /veh KRTAP10-11 (11738290_x_at) / RFU MYO3A (11730013_a_at) / Fold change /veh MYO3A (11730013_a_at) / RFU EBF3 (11725865_a_at) / Fold change /veh EBF3 (11725865_a_at) / RFU CAMK2N1 (11719241_x_at) / Fold change /veh CAMK2N1 (11719241_x_at) / RFU C5orf56 (11738088_a_at) / Fold change /veh C5orf56 (11738088_a_at) / RFU OLFML3 (11715873_a_at) / Fold change /veh OLFML3 (11715873_a_at) / RFU LOC100653217 /// NTM (11731650_a_at) / Fold change /veh LOC100653217 /// NTM (11731650_a_at) / RFU MAPK11 (11762145_a_at) / Fold change /veh MAPK11 (11762145_a_at) / RFU FIZ1 (11724087_x_at) / Fold change /veh FIZ1 (11724087_x_at) / RFU OASL (11726364_x_at) / Fold change /veh OASL (11726364_x_at) / RFU SOX15 (11748057_x_at) / Fold change /veh SOX15 (11748057_x_at) / RFU CD79A (11719716_a_at) / Fold change /veh CD79A (11719716_a_at) / RFU HIST1H1D (11736915_at) / Fold change /veh HIST1H1D (11736915_at) / RFU CASKIN2 (11723855_a_at) / Fold change /veh CASKIN2 (11723855_a_at) / RFU LOC730098 (11760151_x_at) / Fold change /veh LOC730098 (11760151_x_at) / RFU OR4N2 (11742367_at) / Fold change /veh OR4N2 (11742367_at) / RFU PRRT2 (11749266_a_at) / Fold change /veh PRRT2 (11749266_a_at) / RFU SNX32 (11753110_a_at) / Fold change /veh SNX32 (11753110_a_at) / RFU CDHR5 (11726645_a_at) / Fold change /veh CDHR5 (11726645_a_at) / RFU RCAN1 (11760418_a_at) / Fold change /veh RCAN1 (11760418_a_at) / RFU FAM167A (11723789_a_at) / Fold change /veh FAM167A (11723789_a_at) / RFU FAM26E (11764081_at) / Fold change /veh FAM26E (11764081_at) / RFU ISYNA1 (11749810_s_at) / Fold change /veh ISYNA1 (11749810_s_at) / RFU ACY1 (11761880_at) / Fold change /veh ACY1 (11761880_at) / RFU 11764098_at / Fold change /veh 11764098_at / RFU SAMD14 (11745864_x_at) / Fold change /veh SAMD14 (11745864_x_at) / RFU NPB (11741838_a_at) / Fold change /veh NPB (11741838_a_at) / RFU TMPRSS6 (11731388_a_at) / Fold change /veh TMPRSS6 (11731388_a_at) / RFU KRTAP10-2 (11738614_at) / Fold change /veh KRTAP10-2 (11738614_at) / RFU ARHGAP8 /// PRR5-ARHGAP8 (11727945_x_at) / Fold change /veh ARHGAP8 /// PRR5-ARHGAP8 (11727945_x_at) / RFU KRTAP5-7 /// NADSYN1 (11734609_at) / Fold change /veh KRTAP5-7 /// NADSYN1 (11734609_at) / RFU RASL12 (11751679_a_at) / Fold change /veh RASL12 (11751679_a_at) / RFU CDKN2B (11736163_a_at) / Fold change /veh CDKN2B (11736163_a_at) / RFU PRF1 (11729649_at) / Fold change /veh PRF1 (11729649_at) / RFU, ZNF638 /// ZNF638-IT1 / Fold change vs veh, ZNF638 /// ZNF638-IT1 / RFU, PANK3 / Fold change vs veh, PANK3 / RFU, SH3YL1 / Fold change vs veh, SH3YL1 / RFU, ZEB2 / Fold change vs veh, ZEB2 / RFU, NRIP1 / Fold change vs veh, NRIP1 / RFU, PTTG1IP / Fold change vs veh, PTTG1IP / RFU, CAPN2 / Fold change vs veh, CAPN2 / RFU, MED14 / Fold change vs veh, MED14 / RFU, SNORA58 / Fold change vs veh, SNORA58 / RFU, C1orf63 / Fold change vs veh, C1orf63 / RFU, LRRFIP1 / Fold change vs veh, LRRFIP1 / RFU, NDUFAF7 / Fold change vs veh, NDUFAF7 / RFU, SLC12A2 / Fold change vs veh, SLC12A2 / RFU, IBTK / Fold change vs veh, IBTK / RFU, ESF1 / Fold change vs veh, ESF1 / Fold change vs veh, TMEM50B / RFU, TAOK1 / Fold change vs veh, TAOK1 / RFU, ACBD3 / Fold change vs veh, ACBD3 / RFU, TMA16 / Fold change vs veh, TMA16 / RFU, RWDD3 / Fold change vs veh, RWDD3 / RFU, BCAT1 / Fold change vs veh, BCAT1 / RFU, EDEM3 / Fold change vs veh, EDEM3 / RFU, TMEM33 / Fold change vs veh, TMEM33 / RFU, WDR75 / Fold change vs veh, WDR75 / RFU, AHCTF1 / Fold change vs veh, AHCTF1 / RFU, TFRC / Fold change vs veh, TFRC / RFU, ZDHHC17 / Fold change vs veh, ZDHHC17 / RFU, NOM1 / Fold change vs veh, NOM1 / RFU, ARL8B / Fold change vs veh, ARL8B / RFU, ZBTB11 / Fold change vs veh, ZBTB11 / RFU, TAMM41 / Fold change vs veh, TAMM41 / RFU, KIAA1704 /// LOC100996395 / Fold change vs veh, KIAA1704 /// LOC100996395 / RFU, ING1 / Fold change vs veh, ING1 / RFU, TRMT61B / Fold change vs veh, TRMT61B / RFU, FUBP3 / Fold change vs veh, FUBP3 / RFU, TP53 / Fold change vs veh, TP53 / RFU, TNKS2 / Fold change vs veh, TNKS2 / RFU, ZFP14 / Fold change vs veh, ZFP14 / RFU, ACTR2 / Fold change vs veh, ACTR2 / RFU, PPP3R1 / Fold change vs veh, PPP3R1 / RFU, PIK3R1 / Fold change vs veh, PIK3R1 / RFU, HNRNPA1 / Fold change vs veh, HNRNPA1 / RFU, RNF170 / Fold change vs veh, RNF170 / RFU, ZNF28 / Fold change vs veh, ZNF28 / RFU, RNGTT / Fold change vs veh, RNGTT / RFU, OGT / Fold change vs veh, OGT / RFU, BRD1 / Fold change vs veh, BRD1 / RFU, MARS / Fold change vs veh, MARS / RFU, ZNF655 / Fold change vs veh, ZNF655 / RFU, FAHD1 / Fold change vs veh, FAHD1 / RFU, BDP1 / Fold change vs veh, BDP1 / RFU, LRRCC1 / Fold change vs veh, LRRCC1 / RFU, ARID1A / Fold change vs veh, ARID1A / RFU, ZNF146 / Fold change vs veh, ZNF146 / RFU, ZNF330 / Fold change vs veh, ZNF330 / RFU, GPN3 / Fold change vs veh, GPN3 / RFU, C9orf123 / Fold change vs veh, C9orf123 / RFU, N4BP2L2 / Fold change vs veh, N4BP2L2 / RFU, ARFIP1 / Fold change vs veh, ARFIP1 / RFU, FAM179B / Fold change vs veh, FAM179B / RFU, BCL10 / Fold change vs veh, BCL10 / RFU, UHRF1BP1L / Fold change vs veh, UHRF1BP1L / RFU, BET1 / Fold change vs veh, BET1 / RFU, CNOT2 / Fold change vs veh, CNOT2 / RFU, ZNF268 / Fold change vs veh, ZNF268 / Fold change vs veh, ZNF507 / RFU, DGCR2 / Fold change vs veh, DGCR2 / RFU, WDSUB1 / Fold change vs veh, WDSUB1 / Fold change vs veh, HSP90B1 /// MIR3652 / RFU, ADSS / Fold change vs veh, ADSS / RFU, GK / Fold change vs veh, GK / RFU, ZNF148 / Fold change vs veh, ZNF148 / RFU, TAF9 / Fold change vs veh, TAF9 / RFU, SLC1A5 / Fold change vs veh, SLC1A5 / RFU, SLMO2 / Fold change vs veh, SLMO2 / RFU, ABCC4 / Fold change vs veh, ABCC4 / RFU, LOC101060439 /// RAP1B / Fold change vs veh, LOC101060439 /// RAP1B / RFU, RFX7 / Fold change vs veh, RFX7 / RFU, GTPBP10 / Fold change vs veh, GTPBP10 / RFU, CNEP1R1 / Fold change vs veh, CNEP1R1 / RFU, BIVM-ERCC5 /// ERCC5 / Fold change vs veh, BIVM-ERCC5 /// ERCC5 / RFU, ILF3 / Fold change vs veh, ILF3 / RFU 11762660_at / Fold change /veh 11762660_at / RFU VCAN (11757783_s_at) / Fold change /veh VCAN (11757783_s_at) / RFU DDX43 (11728927_at) / Fold change /veh DDX43 (11728927_at) / RFU KRT8 (11758188_x_at) / Fold change /veh KRT8 (11758188_x_at) / RFU NKD1 (11759106_at) / Fold change /veh NKD1 (11759106_at) / RFU SRD5A1 (11742802_a_at) / Fold change /veh SRD5A1 (11742802_a_at) / RFU TPSAB1 /// TPSB2 (11721975_s_at) / Fold change /veh TPSAB1 /// TPSB2 (11721975_s_at) / RFU GSTM3 (11746129_a_at) / Fold change /veh GSTM3 (11746129_a_at) / RFU IL23R (11737362_x_at) / Fold change /veh IL23R (11737362_x_at) / RFU TMEM51 (11727254_a_at) / Fold change /veh TMEM51 (11727254_a_at) / RFU PIWIL2 (11732686_x_at) / Fold change /veh PIWIL2 (11732686_x_at) / RFU ORM1 (11744905_x_at) / Fold change /veh ORM1 (11744905_x_at) / RFU CCDC152 (11743942_at) / Fold change /veh CCDC152 (11743942_at) / RFU ECM1 (11717891_a_at) / Fold change /veh ECM1 (11717891_a_at) / RFU IL23R (11748794_a_at) / Fold change /veh IL23R (11748794_a_at) / RFU TNFAIP8L3 (11732012_x_at) / Fold change /veh TNFAIP8L3 (11732012_x_at) / RFU MBOAT4 (11741988_at) / Fold change /veh MBOAT4 (11741988_at) / RFU 11764193_at / Fold change /veh 11764193_at / RFU TMEM53 (11763286_at) / Fold change /veh TMEM53 (11763286_at) / RFU MAGEB2 (11727129_at) / Fold change /veh MAGEB2 (11727129_at) / RFU TMEM200A (11744735_a_at) / Fold change /veh TMEM200A (11744735_a_at) / RFU CCDC152 (11751479_a_at) / Fold change /veh CCDC152 (11751479_a_at) / RFU FAM211A (11726209_a_at) / Fold change /veh FAM211A (11726209_a_at) / RFU RGS16 (11746705_a_at) / Fold change /veh RGS16 (11746705_a_at) / RFU VCAN (11755009_s_at) / Fold change /veh VCAN (11755009_s_at) / RFU RHOB (11743442_s_at) / Fold change /veh RHOB (11743442_s_at) / RFU RGS16 (11720943_a_at) / Fold change /veh RGS16 (11720943_a_at) / RFU RGS16 (11720944_at) / Fold change /veh RGS16 (11720944_at) / RFU, VPS4B / Fold change vs veh, VPS4B / RFU, CREB1 / Fold change vs veh, CREB1 / RFU, DNAJC13 / Fold change vs veh, DNAJC13 / RFU, GNAQ / Fold change vs veh, GNAQ / RFU, CDK5R1 / Fold change vs veh, CDK5R1 / RFU, ZRANB3 / Fold change vs veh, ZRANB3 / RFU, CUL4A / Fold change vs veh, CUL4A / RFU, CCNY / Fold change vs veh, CCNY / RFU, UFL1 / Fold change vs veh, UFL1 / RFU, COG3 / Fold change vs veh, COG3 / RFU, DIAPH2 / Fold change vs veh, DIAPH2 / RFU, SKA2 / Fold change vs veh, SKA2 / RFU, AFF3 / Fold change vs veh, AFF3 / RFU, LMF1 / Fold change vs veh, LMF1 / RFU, IPO11 / Fold change vs veh, IPO11 / RFU, DFFB / Fold change vs veh, DFFB / RFU, FOXP1 / Fold change vs veh, FOXP1 / RFU, CARD8 / Fold change vs veh, CARD8 / RFU, STRN3 / Fold change vs veh, STRN3 / RFU, ADK / Fold change vs veh, ADK / RFU, RASSF2 / Fold change vs veh, RASSF2 / RFU, WIPF1 / Fold change vs veh, WIPF1 / RFU, LARP1B / Fold change vs veh, LARP1B / RFU, RASA1 / Fold change vs veh, RASA1 / RFU, RB1 / Fold change vs veh, RB1 / RFU, PPFIA1 / Fold change vs veh, PPFIA1 / RFU, MAT2A / Fold change vs veh, MAT2A / RFU, CCT5 / Fold change vs veh, CCT5 / RFU, WDR92 / Fold change vs veh, WDR92 / RFU, CUX1 / Fold change vs veh, CUX1 / RFU, TTC7A / Fold change vs veh, TTC7A / RFU, TMEM135 / Fold change vs veh, TMEM135 / RFU, DEPTOR / Fold change vs veh, DEPTOR / RFU, CPM / Fold change vs veh, CPM / RFU, DNAJB6 / Fold change vs veh, DNAJB6 / RFU, CACNA2D3 / Fold change vs veh, CACNA2D3 / RFU, DTX4 / Fold change vs veh, DTX4 / RFU, TFCP2 / Fold change vs veh, TFCP2 / RFU, GMCL1 /// GMCL1P1 / Fold change vs veh, GMCL1 /// GMCL1P1 / RFU, AEBP2 / Fold change vs veh, AEBP2 / RFU, SNHG1 /// SNORD22 /// SNORD25 /// SNORD26 /// SNORD27 /// SNORD28 /// SNORD29 /// SNORD31 / Fold change vs veh, SNHG1 /// SNORD22 /// SNORD25 /// SNORD26 /// SNORD27 /// SNORD28 /// SNORD29 /// SNORD31 / Fold change (Aza/veh), C12orf56 (ProbeSet 11735607_a_at) / Fold change (ACY-1035/veh), C12orf56 (ProbeSet 11735607_a_at) / Fold change (Aza/veh), FGFR1OP (ProbeSet 11751329_s_at) / Fold change (ACY-1035/veh), FGFR1OP (ProbeSet 11751329_s_at) / Fold change (Aza/veh), VPS36 (ProbeSet 11739960_a_at) / Fold change (ACY-1035/veh), VPS36 (ProbeSet 11739960_a_at) / RFU SYPL1 (11715823_x_at) / Fold change /veh SYPL1 (11715823_x_at) / RFU IGFBP7 (11715501_s_at) / Fold change /veh IGFBP7 (11715501_s_at) / RFU REEP3 (11722064_at) / Fold change /veh REEP3 (11722064_at) / RFU IGLL1 (11728026_x_at) / Fold change /veh IGLL1 (11728026_x_at): dose or concentration left out as unconfirmed
Conditions: ProbeSet 11719817_x_at; LIST B

Compound: Nc1ccc(-c2cccs2)cc1NC(=O)c1ccc2c(c1)cc(C1CC1)n2CCN1CCOCC1 [ACY-1035]
- RFU, BET1: 86.19 RFU
